{
  "source": "patent US20220323445A1",
  "about": "“REDUCING IMMUNOGENICITY TO PEGLOTICASE” (Horizon Therapeutics Ireland DAC, priority 2020, published 2022)",
  "key": {"[1]": {"test_system": "patients with uncontrolled gout", "experiment": "Adverse events of special interest: gout flares during the Methotrexate Run-in Period", "type": "in vivo, human", "conditions": "for Number of Gout Flares per Subject among subjects with at least one gout flare, Mean / Number of Gout Flares per Subject among subjects with at least one gout flare, Median / Gout Flares, % of subjects / Subjects with 1 gout flare, % / Subjects with 2 gout flares, %: Methotrexate Run-in Period", "description": "As used herein, a “gout flare” refers to a manifestation of physiological or biochemical symptoms of gout, which is a possible side effect or AE associated with treatment with KXX. A gout flare may produce burning itching, tingling, or stiffness in the joints, particularly the peripheral joints. An individual may also experience redness, swelling, and pain in the joints. In accordance with the disclosure, gout flares may initially increase when starting treatment with KXX. For such individuals, medications to help reduce flares may be taken regularly for the first few months after KXX is started. […] In some embodiments, gout flare prophylaxis may include, but is not limited to, In some embodiments, prophylactic treatment may be given prior to an infusion of KXX, for example one week prior to treatment with KXX.\nGout Flare Treatment—An increase in gout flares was frequently observed upon initiation of anti-hyperuricemic therapy, including treatment with pegloticase. Participants were instructed to contact the site within 12 hours of the onset of symptoms. Gout flares were confirmed through questioning or direct observation. All participants who experience a gout flare during the study were prescribed anti-inflammatory treatment (e.g., corticosteroids, NSAIDs, colchicine) as deemed clinically indicated by the study physician."}, "[2]": {"test_system": "patients with chronic gout", "conditions": "cited from earlier work"}},
  "data": [
    {"molecule": "CN(Cc1cnc2nc(N)nc(N)c2n1)c1ccc(C(=O)N[C@@H](CCC(=O)O)C(=O)O)cc1", "note": "[MTX, methotrexate]", "values": [
      {"measurement": "Maximum Reported Intensity of Flare (0-10 scale), Max", "setting": "[1]; Day 1, ITT", "result": 8},
      {"measurement": "Maximum Reported Intensity of Flare (0-10 scale), Mean", "setting": "[1]; Day 1, ITT", "result": 5.8},
      {"measurement": "Maximum Reported Intensity of Flare (0-10 scale), Median", "setting": "[1]; Day 1, ITT", "result": 5.5},
      {"measurement": "Maximum Reported Intensity of Flare (0-10 scale), Min", "setting": "[1]; Day 1, ITT", "result": 4},
      {"measurement": "Any Gout Flares Since the Last Visit, %", "setting": "[1]; Day 1, ITT, 14 assessed", "result": "(57.1) %"},
      {"measurement": "Pain at rest >3 out of 10, %", "setting": "[1]; Day 1, ITT, 14 assessed", "result": "(57.1) %"},
      {"measurement": "Pain different than normal, %", "setting": "[1]; Day 1, ITT, 14 assessed", "result": "(50.0) %"},
      {"measurement": "Swelling in Joints, %", "setting": "[1]; Day 1, ITT, 14 assessed", "result": "(42.9) %"},
      {"measurement": "Maximum Reported Intensity of Flare (0-10 scale), Max", "setting": "[1]; Day 1, mITT", "result": 8},
      {"measurement": "Maximum Reported Intensity of Flare (0-10 scale), Mean", "setting": "[1]; Day 1, mITT", "result": 5.8},
      {"measurement": "Maximum Reported Intensity of Flare (0-10 scale), Median", "setting": "[1]; Day 1, mITT", "result": 5.5},
      {"measurement": "Maximum Reported Intensity of Flare (0-10 scale), Min", "setting": "[1]; Day 1, mITT", "result": 4},
      {"measurement": "Any Gout Flares Since the Last Visit, %", "setting": "[1]; Day 1, mITT, 14 assessed", "result": "(57.1) %"},
      {"measurement": "Pain at rest >3 out of 10, %", "setting": "[1]; Day 1, mITT, 14 assessed", "result": "(57.1) %"},
      {"measurement": "Pain different than normal, %", "setting": "[1]; Day 1, mITT, 14 assessed", "result": "(50.0) %"},
      {"measurement": "Swelling in Joints, %", "setting": "[1]; Day 1, mITT, 14 assessed", "result": "(42.9) %"},
      {"measurement": "Number of Gout Flares per Subject among subjects with at least one gout flare, Mean", "setting": "[1]; ITT", "result": 1.2},
      {"measurement": "Number of Gout Flares per Subject among subjects with at least one gout flare, Median", "setting": "[1]; ITT", "result": 1.0},
      {"measurement": "Gout Flares, % of subjects", "setting": "[1]; ITT N = 15", "result": "(33.3) %"},
      {"measurement": "Subjects with 1 gout flare, %", "setting": "[1]; ITT N = 15", "result": "(26.7) %"},
      {"measurement": "Subjects with 2 gout flares, %", "setting": "[1]; ITT N = 15", "result": "(6.7) %"},
      {"measurement": "Number of Gout Flares per Subject among subjects with at least one gout flare, Mean", "setting": "[1]; mITT", "result": 1.2},
      {"measurement": "Number of Gout Flares per Subject among subjects with at least one gout flare, Median", "setting": "[1]; mITT", "result": 1.0},
      {"measurement": "Gout Flares, % of subjects", "setting": "[1]; mITT N = 14", "result": "(35.7) %"},
      {"measurement": "Subjects with 1 gout flare, %", "setting": "[1]; mITT N = 14", "result": "(28.6) %"},
      {"measurement": "Subjects with 2 gout flares, %", "setting": "[1]; mITT N = 14", "result": "(7.1) %"},
      {"measurement": "Maximum Reported Intensity of Flare (0-10 scale), Max", "setting": "[1]; Week −4, ITT", "result": 10},
      {"measurement": "Maximum Reported Intensity of Flare (0-10 scale), Mean", "setting": "[1]; Week −4, ITT", "result": 8.5},
      {"measurement": "Maximum Reported Intensity of Flare (0-10 scale), Median", "setting": "[1]; Week −4, ITT", "result": 8.0},
      {"measurement": "Maximum Reported Intensity of Flare (0-10 scale), Min", "setting": "[1]; Week −4, ITT", "result": 7},
      {"measurement": "Any Gout Flares Since the Last Visit, %", "setting": "[1]; Week −4, ITT, 14 assessed", "result": "(57.1) %"},
      {"measurement": "Pain at rest >3 out of 10, %", "setting": "[1]; Week −4, ITT, 14 assessed", "result": "(50.0) %"},
      {"measurement": "Pain different than normal, %", "setting": "[1]; Week −4, ITT, 14 assessed", "result": "(42.9) %"},
      {"measurement": "Swelling in Joints, %", "setting": "[1]; Week −4, ITT, 14 assessed", "result": "(50.0) %"},
      {"measurement": "Maximum Reported Intensity of Flare (0-10 scale), Max", "setting": "[1]; Week −4, mITT", "result": 10},
      {"measurement": "Maximum Reported Intensity of Flare (0-10 scale), Mean", "setting": "[1]; Week −4, mITT", "result": 8.2},
      {"measurement": "Maximum Reported Intensity of Flare (0-10 scale), Median", "setting": "[1]; Week −4, mITT", "result": 8.0},
      {"measurement": "Maximum Reported Intensity of Flare (0-10 scale), Min", "setting": "[1]; Week −4, mITT", "result": 7},
      {"measurement": "Any Gout Flares Since the Last Visit, %", "setting": "[1]; Week −4, mITT, 13 assessed", "result": "(53.8) %"},
      {"measurement": "Pain at rest >3 out of 10, %", "setting": "[1]; Week −4, mITT, 13 assessed", "result": "(46.2) %"},
      {"measurement": "Pain different than normal, %", "setting": "[1]; Week −4, mITT, 13 assessed", "result": "(38.5) %"},
      {"measurement": "Swelling in Joints, %", "setting": "[1]; Week −4, mITT, 13 assessed", "result": "(46.2) %"}
    ]},
    {"molecule": "pegloticase (protein, monomethoxy PEG conjugated; Krystexxa Sequence, covalent conjugate of uricase produced by a genetically modified strain of Escherichia coli and monomethoxypoly (ethylene glycol)) TYKKNDEVEFVRTGYGKDMIKVLHIQRDGKYHSIKEVATTVQLTLSSKKDYLHGDNSDVIPTDTIKNTVNVLAKFKGIKSIETFAVTICEHFLSSFKHVIRAQVYVEEVPWKRFEKNGVKHVHAFIYTPTGTHFCEVEQIRNGPPVIHSGIKDLKVLKTTQSGFEGFIKDQFTTLPEVKDRCFATQVYCKWRYHQGRDVDFEATWDTVRSIVLQKFAGPYDKGEYSPSVQKTLYDIQVLTLGQVPEIEDMEISLPNIHYLNIDMSKMGLINKEEVLLPLDNPYGKITGTVKRKLSSRL", "values": [
      {"measurement": "patients with IRs in whom loss of response (return to SUA >6 mg/dL) preceded the first IR", "setting": "[2]; 20/21 pegloticase-treated patients with IRs", "result": 95, "unit": "%"},
      {"measurement": "incidence of infusion reactions", "setting": "[2]; pegloticase 8 mg every 2 weeks (biweekly dosing)", "result": 26, "unit": "%"},
      {"measurement": "incidence of infusion-related reactions", "setting": "[2]; pegloticase 8 mg every-4-week dosing regimen", "result": 40, "unit": "%"},
      {"measurement": "frequency of anaphylaxis", "setting": "[2]; pre-marketing controlled clinical trials", "result": 6.5, "unit": "%"}
    ]}
  ]
}
